Biological target: T1, human indoleamine 2,3-dioxygenase 1 (hIDO1) (Homo sapiens, UniProt P14902)
T1 construct: gene IDO1; full-length hIDO1
Test: electrochemical inhibition assay (voltammetry, purified hIDO1 immobilized on nanoporous gold electrode, with O2 and Trp)
Format: biochemical

T1 sequence (P14902 whole entry): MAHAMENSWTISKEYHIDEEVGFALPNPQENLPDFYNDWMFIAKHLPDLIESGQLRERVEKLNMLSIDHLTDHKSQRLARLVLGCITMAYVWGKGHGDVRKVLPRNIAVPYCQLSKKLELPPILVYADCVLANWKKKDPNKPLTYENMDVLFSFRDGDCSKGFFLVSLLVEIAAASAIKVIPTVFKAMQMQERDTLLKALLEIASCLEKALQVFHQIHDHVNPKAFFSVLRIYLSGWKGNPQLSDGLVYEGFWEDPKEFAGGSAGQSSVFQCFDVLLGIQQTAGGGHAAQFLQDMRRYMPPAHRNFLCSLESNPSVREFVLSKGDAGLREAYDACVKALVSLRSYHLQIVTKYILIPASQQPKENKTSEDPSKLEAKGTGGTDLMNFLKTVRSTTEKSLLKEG

IC50: ~10 nM
Structure (SMILES): CC(C)(C)c1nc(CN2CCN(CC(O)c3ccccc3)CC2)no1 (racemic) [MTS-7, 2-(4-{[5-(2-methyl-2-propanyl)-1,2,4-oxadiazol-3-yl]methyl}-1-piperazinyl)-1-phenylethanol]

From publication PMC11944389, “Electrochemical Analysis and Inhibition Assay of Immune-Modulating Enzyme, Indoleamine 2,3-Dioxygenase” (Pharmaceuticals, 2025)
